Data reported in US20250163104A1, “MACROCYCLIC IMMUNOMODULATORS” (priority 2021, published 2025).
Where a SMILES comes first, the peptide text is derived from it. Bridges are numbered along the chain shown (N, C = ends). [ ]: non-standard residue; d: D form. The star is where a group is joined. Phe(4-COOH) = N[C@@H](Cc1ccc(C(=O)O)cc1)C(=O)O; Bip = N[C@@H](Cc1ccc(-c2ccccc2)cc1)C(=O)O; Phe(3-Me) = Cc1cccc(C[C@H](N)C(=O)O)c1; Cha = N[C@@H](CC1CCCCC1)C(=O)O; Carboxymethyl = O=C(O)C*; Nle = CCCC[C@H](N)C(=O)O; Orn = NCCC[C@H](N)C(=O)O; Dab = NCC[C@H](N)C(=O)O; Nva = CCC[C@H](N)C(=O)O; Abu = CC[C@H](N)C(=O)O; Propargyl = C#CC*

These compounds were tested against T1, human PD-1 / PD-L1-Ig binding on Jurkat cell line over-expressing human PD-1 (Jurkat-PD-1) (Homo sapiens, UniProt Q15116) (assay: Jurkat-PD-1 Cell Binding High-Content Screening Assay (CBA)). Settings: Jurkat-PD-1 cells, PE-labeled PD-L1-Ig 20 nM final; read-out: Jurkat HPD1_PDL1 IC50.
T1 construct: expressed in transfected cells; host or cells: Jurkat
T1 sequence (Q15116 25-288): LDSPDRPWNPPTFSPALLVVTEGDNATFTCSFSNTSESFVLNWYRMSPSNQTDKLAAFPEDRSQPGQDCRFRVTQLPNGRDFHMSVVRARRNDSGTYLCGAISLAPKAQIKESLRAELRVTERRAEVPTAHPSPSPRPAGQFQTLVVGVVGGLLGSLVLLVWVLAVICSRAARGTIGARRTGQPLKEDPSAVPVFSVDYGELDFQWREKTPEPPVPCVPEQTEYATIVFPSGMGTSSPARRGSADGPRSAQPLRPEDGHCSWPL
Type: cell-based
Outline: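 Read-out: high-content imaging of PE-tagged PD-L1-Ig bound to Jurkat cells overexpressing human PD-1, after fixation with 4% paraformaldehyde and Hoechst 33342 nuclear staining. Ligand was used at 20 nM final for 1 hour, after a 2 h compound exposure at 37° C in serum-containing DMEM.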

SMILES	IC50 [nM]
C#CCOc1ccc(C[C@@H]2NC(=O)[C@H](Cc3ccc(-c4ccccc4)cc3)NC(=O)[C@H](Cc3ccc(C(=O)O)cc3)NC(=O)[C@H](Cc3cccc(C)c3)NC(=O)[C@H](CC(=O)O)NC(=O)[C@H](Cc3ccc(C(=O)O)cc3)NC(=O)[C@H]([C@@H](C)O)NC(=O)CSC[C@@H](C(=O)N[C@@H](CCN)C(N)=O)NC(=O)[C@H](CCC(=O)O)NC(=O)[C@H](C(C)C)NC(=O)[C@H](CC3CCCCC3)NC(=O)[C@H](CCN)NC(=O)[C@@H](CC(C)C)NC(=O)[C@H](CCCN)NC2=O)cc1 [Compound 1828] ({CH2CO}-T[Phe(4-COOH)]D[Phe(3-Me)][Phe(4-COOH)][Bip]Y(Propargyl)[Orn][dL][Dab][Cha]VEC[Dab]-NH2; thioether N-14)	6.9
C#CCOc1ccc(C[C@@H]2NC(=O)[C@H](Cc3cccc(C)c3)NC(=O)[C@H](CC(=O)O)NC(=O)[C@H](Cc3ccc(OCC(=O)O)cc3)NC(=O)[C@H]([C@@H](C)O)NC(=O)CSC[C@@H](C(=O)N[C@@H](CCN)C(N)=O)NC(=O)[C@H](CCC(=O)O)NC(=O)[C@H](C(C)C)NC(=O)[C@H](CC3CCCCC3)NC(=O)[C@H](CCN)NC(=O)[C@@H](CC(C)C)NC(=O)[C@H](CCCN)NC(=O)[C@H](Cc3ccc(OCC(=O)O)cc3)NC(=O)[C@H](Cc3ccc(-c4ccccc4)cc3)NC2=O)cc1 [Compound 1829] ({CH2CO}-TY(Carboxymethyl)D[Phe(3-Me)]Y(Propargyl)[Bip]Y(Carboxymethyl)[Orn][dL][Dab][Cha]VEC[Dab]-NH2; thioether N-14)	2.4
C#CCOc1ccc(C[C@@H]2NC(=O)[C@H](Cc3cccc(C)c3)NC(=O)[C@H](CC(=O)O)NC(=O)[C@H](Cc3ccc(C(=O)O)cc3)NC(=O)[C@H](CCC)NC(=O)CSC[C@@H](C(=O)N[C@@H](CCN)C(N)=O)NC(=O)[C@H](CCC(=O)O)NC(=O)[C@H](C(C)C)NC(=O)[C@H](CC3CCCCC3)NC(=O)[C@H](CCN)NC(=O)[C@@H](CC(C)C)NC(=O)[C@H](CCCN)NC(=O)[C@H](Cc3ccc(C(=O)O)cc3)NC(=O)[C@H](Cc3ccc(-c4ccccc4)cc3)NC2=O)cc1 [Compound 1830] ({CH2CO}-[Nva][Phe(4-COOH)]D[Phe(3-Me)]Y(Propargyl)[Bip][Phe(4-COOH)][Orn][dL][Dab][Cha]VEC[Dab]-NH2; thioether N-14)	3.6
C#CCOc1ccc(C[C@@H]2NC(=O)[C@H](Cc3ccc(-c4ccccc4)cc3)NC(=O)[C@H](Cc3ccc(C(=O)O)cc3)NC(=O)[C@H](Cc3cccc(C)c3)NC(=O)[C@H](CC(=O)O)NC(=O)[C@H](Cc3ccc(C(=O)O)cc3)NC(=O)[C@H](CCC)NC(=O)CSC[C@@H](C(=O)N[C@@H](CCN)C(N)=O)NC(=O)[C@H](CCC(=O)O)NC(=O)[C@H](C(C)C)NC(=O)[C@H](CC3CCCCC3)NC(=O)[C@H](CCN)NC(=O)[C@@H](CC(C)C)NC(=O)[C@H](CCCN)NC2=O)cc1 [Compound 1831] ({CH2CO}-[Nva][Phe(4-COOH)]D[Phe(3-Me)][Phe(4-COOH)][Bip]Y(Propargyl)[Orn][dL][Dab][Cha]VEC[Dab]-NH2; thioether N-14)	4.8
C#CCOc1ccc(C[C@@H]2NC(=O)[C@H](Cc3cccc(C)c3)NC(=O)[C@H](CC(=O)O)NC(=O)[C@H](Cc3ccc(OCC(=O)O)cc3)NC(=O)[C@H](CCC)NC(=O)CSC[C@@H](C(=O)N[C@@H](CCN)C(N)=O)NC(=O)[C@H](CCC(=O)O)NC(=O)[C@H](C(C)C)NC(=O)[C@H](CC3CCCCC3)NC(=O)[C@H](CCN)NC(=O)[C@@H](CC(C)C)NC(=O)[C@H](CCCN)NC(=O)[C@H](Cc3ccc(OCC(=O)O)cc3)NC(=O)[C@H](Cc3ccc(-c4ccccc4)cc3)NC2=O)cc1 [Compound 1832] ({CH2CO}-[Nva]Y(Carboxymethyl)D[Phe(3-Me)]Y(Propargyl)[Bip]Y(Carboxymethyl)[Orn][dL][Dab][Cha]VEC[Dab]-NH2; thioether N-14)	2.6
C#CCOc1ccc(C[C@@H]2NC(=O)[C@H](Cc3cccc(C)c3)NC(=O)[C@H](CC(=O)O)NC(=O)[C@H](Cc3ccc(OCC(=O)O)cc3)NC(=O)[C@H](CCCC)NC(=O)CSC[C@@H](C(=O)N[C@@H](CCN)C(N)=O)NC(=O)[C@H](CCC(=O)O)NC(=O)[C@H](C(C)C)NC(=O)[C@H](CC3CCCCC3)NC(=O)[C@H](CCN)NC(=O)[C@@H](CC(C)C)NC(=O)[C@H](CCCN)NC(=O)[C@H](Cc3ccc(OCC(=O)O)cc3)NC(=O)[C@H](Cc3ccc(-c4ccccc4)cc3)NC2=O)cc1 [Compound 1833] ({CH2CO}-[Nle]Y(Carboxymethyl)D[Phe(3-Me)]Y(Propargyl)[Bip]Y(Carboxymethyl)[Orn][dL][Dab][Cha]VEC[Dab]-NH2; thioether N-14)	1.5
C#CCOc1ccc(C[C@@H]2NC(=O)[C@H](Cc3cccc(C)c3)NC(=O)[C@H](CC(=O)O)NC(=O)[C@H](Cc3ccc(OCC(=O)O)cc3)NC(=O)[C@H](Cc3ccc(OCC(=O)O)cc3)NC(=O)CSC[C@@H](C(=O)N[C@@H](CCN)C(N)=O)NC(=O)[C@H](CCC(=O)O)NC(=O)[C@H](C(C)C)NC(=O)[C@H](CC3CCCCC3)NC(=O)[C@H](CCN)NC(=O)[C@@H](CC(C)C)NC(=O)[C@H](CCCN)NC(=O)[C@H](Cc3ccc(OCC(=O)O)cc3)NC(=O)[C@H](Cc3ccc(-c4ccccc4)cc3)NC2=O)cc1 [Compound 1834] ({CH2CO}-Y(Carboxymethyl)Y(Carboxymethyl)D[Phe(3-Me)]Y(Propargyl)[Bip]Y(Carboxymethyl)[Orn][dL][Dab][Cha]VEC[Dab]-NH2; thioether N-14)	3.3
C#CCOc1ccc(C[C@@H]2NC(=O)[C@H](Cc3ccc(-c4ccccc4)cc3)NC(=O)[C@H](Cc3ccc(C(=O)O)cc3)NC(=O)[C@H](Cc3cccc(C)c3)NC(=O)[C@H](CC(=O)O)NC(=O)[C@H](Cc3ccc(C(=O)O)cc3)NC(=O)[C@H](CCCC)NC(=O)CSC[C@@H](C(=O)N[C@@H](CCN)C(N)=O)NC(=O)[C@H](CCC(=O)O)NC(=O)[C@H](C(C)C)NC(=O)[C@H](CC3CCCCC3)NC(=O)[C@H](CCN)NC(=O)[C@@H](CC(C)C)NC(=O)[C@H](CCCN)NC2=O)cc1 [Compound 1835] ({CH2CO}-[Nle][Phe(4-COOH)]D[Phe(3-Me)][Phe(4-COOH)][Bip]Y(Propargyl)[Orn][dL][Dab][Cha]VEC[Dab]-NH2; thioether N-14)	6.4
C#CCOc1ccc(C[C@@H]2NC(=O)[C@H](Cc3ccc(-c4ccccc4)cc3)NC(=O)[C@H](Cc3ccc(OCC(=O)O)cc3)NC(=O)[C@H](Cc3cccc(C)c3)NC(=O)[C@H](CC(=O)O)NC(=O)[C@H](Cc3ccc(OCC(=O)O)cc3)NC(=O)[C@H]([C@@H](C)O)NC(=O)CSC[C@@H](C(=O)N[C@@H](CCN)C(N)=O)NC(=O)[C@H](CCC(=O)O)NC(=O)[C@H](C(C)C)NC(=O)[C@H](CC3CCCCC3)NC(=O)[C@H](CCN)NC(=O)[C@@H](CC(C)C)NC(=O)[C@H](CCCN)NC2=O)cc1 [Compound 1836] ({CH2CO}-TY(Carboxymethyl)D[Phe(3-Me)]Y(Carboxymethyl)[Bip]Y(Propargyl)[Orn][dL][Dab][Cha]VEC[Dab]-NH2; thioether N-14)	7.2
C#CCOc1ccc(C[C@@H]2NC(=O)[C@H](Cc3ccc(-c4ccccc4)cc3)NC(=O)[C@H](Cc3ccc(OCC(=O)O)cc3)NC(=O)[C@H](Cc3cccc(C)c3)NC(=O)[C@H](CC(=O)O)NC(=O)[C@H](Cc3ccc(OCC(=O)O)cc3)NC(=O)[C@H](CCC)NC(=O)CSC[C@@H](C(=O)N[C@@H](CCN)C(N)=O)NC(=O)[C@H](CCC(=O)O)NC(=O)[C@H](C(C)C)NC(=O)[C@H](CC3CCCCC3)NC(=O)[C@H](CCN)NC(=O)[C@@H](CC(C)C)NC(=O)[C@H](CCCN)NC2=O)cc1 [Compound 1837] ({CH2CO}-[Nva]Y(Carboxymethyl)D[Phe(3-Me)]Y(Carboxymethyl)[Bip]Y(Propargyl)[Orn][dL][Dab][Cha]VEC[Dab]-NH2; thioether N-14)	8.3
C#CCOc1ccc(C[C@@H]2NC(=O)[C@H](Cc3ccc(-c4ccccc4)cc3)NC(=O)[C@H](Cc3ccc(OCC(=O)O)cc3)NC(=O)[C@H](Cc3cccc(C)c3)NC(=O)[C@H](CC(=O)O)NC(=O)[C@H](Cc3ccc(OCC(=O)O)cc3)NC(=O)[C@H](CCCC)NC(=O)CSC[C@@H](C(=O)N[C@@H](CCN)C(N)=O)NC(=O)[C@H](CCC(=O)O)NC(=O)[C@H](C(C)C)NC(=O)[C@H](CC3CCCCC3)NC(=O)[C@H](CCN)NC(=O)[C@@H](CC(C)C)NC(=O)[C@H](CCCN)NC2=O)cc1 [Compound 1838] ({CH2CO}-[Nle]Y(Carboxymethyl)D[Phe(3-Me)]Y(Carboxymethyl)[Bip]Y(Propargyl)[Orn][dL][Dab][Cha]VEC[Dab]-NH2; thioether N-14)	7.6
C#CCOc1ccc(C[C@@H]2NC(=O)[C@H](Cc3ccc(-c4ccccc4)cc3)NC(=O)[C@H](Cc3ccc(C(=O)O)cc3)NC(=O)[C@H](Cc3cccc(C)c3)NC(=O)[C@H](CC(=O)O)NC(=O)[C@H](Cc3ccc(C(=O)O)cc3)NC(=O)[C@H](CC)NC(=O)CSC[C@@H](C(=O)N[C@@H](CCN)C(N)=O)NC(=O)[C@H](CCC(=O)O)NC(=O)[C@H](C(C)C)NC(=O)[C@H](CC3CCCCC3)NC(=O)[C@H](CCN)NC(=O)[C@@H](CC(C)C)NC(=O)[C@H](CCCN)NC2=O)cc1 [Compound 1839] ({CH2CO}-[Abu][Phe(4-COOH)]D[Phe(3-Me)][Phe(4-COOH)][Bip]Y(Propargyl)[Orn][dL][Dab][Cha]VEC[Dab]-NH2; thioether N-14)	2.3
C#CCOc1ccc(C[C@@H]2NC(=O)[C@H](Cc3cccc(C)c3)NC(=O)[C@H](CC(=O)O)NC(=O)[C@H](Cc3ccc(OCC(=O)O)cc3)NC(=O)[C@H](CC)NC(=O)CSC[C@@H](C(=O)N[C@@H](CCN)C(N)=O)NC(=O)[C@H](CCC(=O)O)NC(=O)[C@H](C(C)C)NC(=O)[C@H](CC3CCCCC3)NC(=O)[C@H](CCN)NC(=O)[C@@H](CC(C)C)NC(=O)[C@H](CCCN)NC(=O)[C@H](Cc3ccc(OCC(=O)O)cc3)NC(=O)[C@H](Cc3ccc(-c4ccccc4)cc3)NC2=O)cc1 [Compound 1840] ({CH2CO}-[Abu]Y(Carboxymethyl)D[Phe(3-Me)]Y(Propargyl)[Bip]Y(Carboxymethyl)[Orn][dL][Dab][Cha]VEC[Dab]-NH2; thioether N-14)	3.4
